In patent publication US12180159B2, “Activators of the unfolded protein response” (The Board of Trustees of the University of Illinois, priority 2018, dated 2024):

Key:
[1] = test system: protein synthesis in Caov-3 cells; assay: Inhibition of protein synthesis (35S-methionine incorporation); assay type: cell-based, human; conditions: 1,000 nM
Description: ERα positive Caov-3, human ovarian cancer cells, were treated for the indicated times with 1,000 nM BHPI or 1,000 nM (−)-105. Cells were briefly labeled with ^35S-methionine. Incorporation of labeled ^35S-methionine into protein was determined by trichloroacetic acid precipitation and trapping of precipitated protein, but not free amino acids, in small Whatman hardened ashless filters. After solubilizing the protein in the filters with base and neutralization with acid, the samples were counted in a liquid scintillation counter. Shown is the average (n≥3) percent inhibition of protein synthesis compared to the 0-time sample. The near quantitative inhibition of protein synthesis by (−)-105 is consistent with (−)-105 inducing lethal hyperactivation of the PERK arm of the UPR. Even non-growing cells are constantly degrading protein and making new proteins. Cells in which nearly all (>90%) of protein synthesis is inhibited cannot grow and will ultimately die.

[2] = test system: ATP levels in TYS-Luc cells; assay: Intracellular ATP levels; assay type: cell-based, human; conditions: 1,000 nM
Description: TYS-Luc cells were maintained DMSO vehicle (Veh), 1,000 nM BHPI, 1,000 nM (−)-105 with and without 10,000 nM thapsigargin (THG) for the indicated times. ATP levels were determines using a kit and relative ATP levels were from a standard curve. […] (n=3±SEM).

[3] = test system: MCF-7 ERα Y537S-luciferase cells; assay: Long-term cell culture experiment, MCF-7Y537S cells; assay type: cell-based, human; conditions: conditions as FIG. 15
MCF-7 cells = assay type: cell-based
Description: FIG. 36. Discovery of SERK-F6 (also known as, C(−)-105, (−)-105, (R)-105, (−)-1, or (R)-1), a compound that kills ERα-positive cancer cells. a, Chemical structures of BHPI and racemic compound 1 (i.e. (±)-1), and their cytotoxic activity on T47D breast cancer cells after 24-hour incubations with concentrations as indicated in nM. Cells were stained with annexin V-FITC and PI dyes prior to analysis via flow cytometry. […] Cells were incubated with SERK-F6 or positive control, Raptinal, for 24 hours and then stained with annexin V-FITC and PI dyes and analyzed via flow cytometry. Error bars represent S.E.M of 3 independent replicates. c, IC50 values of SERK-F6 after 24-hour incubation against a panel of cancer cell lines grouped by their reported ERα status. Cell viability was measured by Alamar blue fluorescence and set relative to a vehicle control and a quantitative dead control treated with Raptinal. Error bars represent S.E.M of 3 independent experiments. d, Crystal violet staining of T47D cells after 24-hour incubations with compounds and concentrations as indicated. […] Cell number was determined by MTS.
Through a medicinal chemistry campaign, (±)-1 was discovered to show an unexpected cytotoxic phenotype (FIG. 36A). […] The dose dependent activity of SERK-F6 was determined against a panel of cancer cell lines (FIG. 36C and FIG. 37A) for ERα.

[4] = test system: D538G mutant tumors (TDG cell line); assay: TDG-luc orthotopic tumor model; assay type: in vivo, mouse
Source text: FIG. 41. SERK-F6 eradicates mutant ERα primary and metastatic breast cancer. a-c, TYS-luc. orthotopic tumors were established in NSG ovariectomized mice (no E2 pellet, 60 days to establish) and dosed daily as indicated (n=5-6). b, representative examples of bioluminescence images of SERK-F6 treated mice (7 days). d,e, TDG-luc. orthotopic tumors were established in NSG ovariectomized mice (no E2 pellet, 120 days to establish) and dosed daily as indicated (n=4-5). e, Bioluminescence image of SERK-F6 treated mouse with TDG-luc. tumor burden after 7 days. f, MYS-luc. orthotopic tumors were established in NSG ovariectomized mice (no E2 pellet, 45 days to establish) and dosed daily as indicated (n=4-5). g, MDG-luc. orthotopic tumors were established in NSG ovariectomized mice (no E2 pellet, 45 days to establish) and dosed daily as indicated (n=4-5). h, Metastatic model with MDG-luc. cells injected into the tail-vein of NSG ovariectomized mice (no E2 pellet, 1.5 months to establish) and mice were dosed daily as indicated (n=4-5).
FIG. 4A illustrates how IC50's for cell death were determined. 4B tests the ability BHPI, (−)-105, and 01-15 to kill. […] Large orthotopic breast tumors of TYD-Luc cells (T47DERαD538G-luciferase human breast cancer cells) were allowed to form for 4 months in immune suppressed NSG mice. […]

[5] = test system: MYS and MDG cells (MCF-7 with Y537S or D538G ERα); assay: MYS-luc / MDG-luc orthotopic and metastatic tumor models; assay type: in vivo, mouse
Source text: FIG. 41. […]
FIG. 43. SERK-F6-mediated eradication of MYS/MDG tumors is dependent on quantitative cell killing. a-b, MYS-luc. orthotopic tumors were established in NSG ovariectomized mice (no E2 pellet, ˜45 days to establish) and dosed daily as indicated (n=5-6). b, Treatment of MYS-luc. tumors were stopped after 21 daily doses of SERK-F6 and mice tumor burden was tracked via bioluminescence. […]

O=C1Nc2c(C(F)(F)F)cccc2C1(c1ccc(O)cc1)c1ccc(OC(F)(F)F)cc1 (single isomer, unassigned; (-)) [(−)-105, 3-(4-hydroxyphenyl)-3-(4-(trifluoromethoxy)phenyl)-7-(trifluoromethyl)indolin-2-one]
inhibition of the synthesis of new proteins [1]: near-quantitative, inhibition | intracellular ATP levels [2]: reduces intracellular ATP levels | effect on MCF-7Y537S cells in long-term experiments [3]: eradicates | cytotoxicity to ERα positive MCF-7 cells (MCF-7 cells): cytotoxic | death of MCF-7 cells (MCF-7 cells; FIG. 10): induces dose-dependent death | efficacy when administered orally ([4]; 40 mg/kg oral gavage, 3 days): effective when administered orally | effect on D538G mutant tumors ([4]; mouse, in vivo): destruction of D538G mutant tumors | effect on metastatic tumor burden ([5]; metastatic model): eradicates metastatic tumor burden | effect on MYS / MDG tumors ([5]; mouse, in vivo): Dramatic tumor regressions
